Columns and labels:
A549 = experiment: MTT assay, cell proliferation; format: cell-based; details: Homo sapiens, 24 h, read-out: IC50, inhibition of cell proliferation
Protocol: (§1) HepG2, HCT116, HeLa and LO2 cell lines were cultured in DMEM containing 10% fetal bovine serum (FBS), 100 IU/mL penicillin and 100 µg/mL streptomycin; A549 and K562 cell lines were cultured in RPMI 1640 medium containing 10% fetal bovine serum (FBS), 100 IU/mL penicillin and 100 µg/mL streptomycin; Human umbilical vein endothelial cells (HUVECs) were cultured on gelatin-coated culture flasks in M-199 medium with 20% fetal bovine serum (FBS), 2 ng/mL VEGF, 10 ng/mL basic FGF, 100 IU/mL penicillin, and 100 μg/mL streptomycin; all of them were obtained from the American Type Culture Collection (ATCC) and all cell lines were incubated in an atmosphere of 5% CO2 at 37 °C.
(§2) Cells were treated with various concentrations of compound in 96-well culture plates for 24 h in final volumes of 200 μL (5 × 10^3 cells/well). Then 20 μL of MTT solution (5 mg/mL) was added to each well, and cells were incubated for an additional 3 h. Then the medium was carefully removed, and precipitates were dissolved in 150 μL of DMSO, shaken mechanically for 30 min, and then absorbance values at a wavelength of 570 nm were taken on a spectrophotometer (Molecular Devices, Sunnyvale, CA, USA). Values were calculated using percentage of growth versus untreated control. The IC50 was defined as the concentration that caused 50% inhibition of cell proliferation, and was calculated by SAS statistical software.

HCT116 = experiment: MTT assay, cell proliferation; format: cell-based; details: Homo sapiens, HCT-116, 24 h, read-out: IC50, inhibition of cell proliferation
Protocol: as §1, §2

HeLa = experiment: MTT assay, cell proliferation; format: cell-based; details: Homo sapiens, 24 h, read-out: IC50, inhibition of cell proliferation
Protocol: as §1, §2

HepG2 = experiment: MTT assay, cell proliferation; format: cell-based; details: Homo sapiens, 24 h, read-out: IC50, inhibition of cell proliferation
Protocol: as §1, §2

K562 = experiment: MTT assay, cell proliferation; format: cell-based; details: Homo sapiens, 24 h, read-out: IC50, inhibition of cell proliferation
Protocol: as §1, §2

HUVEC = experiment: MTT assay, cell proliferation; format: cell-based, Human; details: Homo sapiens, 24 h, read-out: IC50, inhibition of cell proliferation
Protocol: Inhibiting the proliferation of ECs is another important strategy for antiangiogenesis. […] As the exposure time of these derivatives was 24 h in the migration assay and 6 h in the tube formation assay, the effect of the incubation for 24 h in the presence of these compounds on HUVECs proliferation was then tested. Cell viability was assessed by the MTT method. We can see from Table 4 that these compounds had different antiproliferative activities.
as §1, §2

LO2 = experiment: MTT assay, cytotoxicity; format: cell-based; details: Homo sapiens, L02, 24 h, read-out: IC50, inhibition of cell proliferation
Protocol: as §1, §2

[1] = tested on: transgenic fli-1: enhanced GFP zebrafish embryos; experiment: Zebrafish embryo assay: antiangiogenic effects; format: in vivo, zebrafish (Danio rerio); details: zebrafish embryos
Protocol: As stated previously, zebrafish is regarded as a powerful tool in the study of human diseases. […] In this study, all GA derivatives were incubated with the transgenic friend leukemia integration-1 (fli-1): enhanced GFP zebrafish embryos which carried a fli-1 promoter which can drive the expression of GFP in the whole endothelium.
Figure 1 Effects on neovascularization in zebrafish embryos. The transgenic fli-1: enhanced GFP zebrafish embryos in embryo water (0.2 g/L of instant ocean salt in distilled water) incubated with 1 μM of compounds at 6 h postfertilization (hpf) for 24 h. Zebrafish embryos were imaged (Imager.Z1, magnification: left, 40×; right, 100×).
Using transgenic fli-1: enhanced GFP zebrafish embryos, we investigated the effects of all compounds on angiogenesis. […] At about 6 h post fertilization (hpf), the embryos were sorted in the 6-well plate (six embryos/well), removing dead and unhealthy embryos. Then the embryos were treated with the indicated concentrations of compounds which were added into embryo water. After incubation for 24 or 48 h, the embryos were anesthetized using 0.05% 2-phenoxyethanol in embryo water, quantified and photographed.

Compound | IC50 (A549) [µM] | IC50 (HCT116) [µM] | IC50 (HeLa) [µM] | IC50 (HepG2) [µM] | IC50 (K562) [µM] | IC50 (HUVEC) [µM] | IC50 (LO2) [µM] | antiangiogenic rates ([1]; 1 μM) | inhibition in vivo at 2.5 µM ([1]; Danio rerio, 2.5 μM, vs vehicle (0.05% DMSO), read-out: Anti-angiogenic phenotype) [%] | inhibition in vivo at 10 µM ([1]; Danio rerio, 10 μM, vs vehicle (0.05% DMSO), read-out: Anti-angiogenic phenotype) [%]
CC(C)=CCCC1(C)C=Cc2c(O)c3c(c(CC=C(C)C)c2O1)OC12C(=CC4CC1C(C)(C)OC2(C/C=C(/C)C(=O)Sc1nccs1)C4=O)C3=O (stereo not drawn) [Compound 29, S-thiazol-2-yl gambogthioate] | 0.63 ± 0.01 | 1.63 ± 0.15 | 1.45 ± 0.07 | 0.85 ± 0.15 | 0.79 ± 0.06 | 6.64 ± 0.11 | 4.28 ± 0.33 |  |  | 
CC(=O)c1ccc(OC(=O)/C(C)=C\CC23OC(C)(C)C4CC(C=C5C(=O)c6c(O)c7c(c(CC=C(C)C)c6OC542)OC(C)(CCC=C(C)C)C=C7)C3=O)c([N+](=O)[O-])c1 (stereo not drawn) [Compound 5, 2-Nitro-4-ethanonephenyl gambogate] | 5.53 ± 0.4 | 5.47 ± 0.24 | 6.37 ± 0.11 | 9.45 ± 1.42 | 2.03 ± 0.2 | 4.39 ± 0.27 | 4.03 ± 0.34 |  |  | 
CC(C)=CCCC1(C)C=Cc2c(O)c3c(c(CC=C(C)C)c2O1)OC12C(=CC4CC1C(C)(C)OC2(C/C=C(/C)C(=O)Oc1ccc(Br)cc1)C4=O)C3=O (stereo not drawn) [Compound 19, 4-Bromophenyl gambogate] | > 80 | 70.2 ± 3.06 | > 80 | > 80 | > 80 | 68 ± 4 | > 80 |  |  | 
CC(=O)Nc1ccc(SC(=O)/C(C)=C\CC23OC(C)(C)C4CC(C=C5C(=O)c6c(O)c7c(c(CC=C(C)C)c6OC542)OC(C)(CCC=C(C)C)C=C7)C3=O)cc1 (stereo not drawn) [Compound 30, 4-Acetamidophenyl gambogthioate] | 1.24 ± 0.09 | 1.33 ± 0.07 | 3.43 ± 0.28 | 1.72 ± 0.03 | 0.44 ± 0.02 | 1.03 ± 0.07 | 2.84 ± 0.34 |  |  | 
CC(C)=CCCC1(C)C=Cc2c(O)c3c(c(CC=C(C)C)c2O1)OC12C(=CC4CC1C(C)(C)OC2(C/C=C(/C)C(=O)Oc1cccc(C#N)c1)C4=O)C3=O (stereo not drawn) [Compound 12, 3-Cyanophenyl gambogate] | 10.7 ± 0.26 | 5.57 ± 0.26 | 7.1 ± 1.43 | 7.8 ± 0.11 | 1.79 ± 0.08 | 7.58 ± 1.36 | 5.15 ± 1.19 |  |  | 
CC(=O)Nc1ccccc1OC(=O)/C(C)=C\CC12OC(C)(C)C3CC(C=C4C(=O)c5c(O)c6c(c(CC=C(C)C)c5OC431)OC(C)(CCC=C(C)C)C=C6)C2=O (stereo not drawn) [Compound 27, 2-Acetamidophenyl gambogate] | 1.22 ± 0.25 | 1.05 ± 0.07 | 3.51 ± 0.15 | 0.69 ± 0.08 | 0.52 ± 0.02 | 0.5 ± 0.03 | 1.52 ± 0.12 |  |  | 
CC(C)=CCCC1(C)C=Cc2c(O)c3c(c(CC=C(C)C)c2O1)OC12C(=CC4CC1C(C)(C)OC2(C/C=C(/C)C(=O)Oc1ccc(C(C)(C)CC(C)(C)C)cc1)C4=O)C3=O (stereo not drawn) [Compound 25, 4-(2,4,4-Trimethylpentan-2-yl)phenyl gambogate] | > 80 | > 80 | > 80 | > 80 | > 80 | > 80 | > 80 |  |  | 
CC(C)=CCCC1(C)C=Cc2c(O)c3c(c(CC=C(C)C)c2O1)OC12C(=CC4CC1C(C)(C)OC2(C/C=C(/C)C(=O)Nc1nc2ccccc2s1)C4=O)C3=O (stereo not drawn) [Compound 34, N-(benzo[d]thiazol-2-yl) gambogamide] | 21.4 ± 3.71 | 7.74 ± 1.43 | > 80 | 8.65 ± 0.46 | > 20 | 5.63 ± 0.2 | 7.3 ± 1.2 |  |  | 
CCc1ccc(OC(=O)/C(C)=C\CC23OC(C)(C)C4CC(C=C5C(=O)c6c(O)c7c(c(CC=C(C)C)c6OC542)OC(C)(CCC=C(C)C)C=C7)C3=O)cc1 (stereo not drawn) [Compound 21, 4-Ethylphenyl gambogate] | > 80 | > 80 | > 80 | > 80 | > 80 | 70.5 ± 4.86 | > 80 |  |  | 
CC(C)=CCCC1(C)C=Cc2c(O)c3c(c(CC=C(C)C)c2O1)OC12C(=CC4CC1C(C)(C)OC2(C/C=C(/C)C(=O)Oc1cccc([N+](=O)[O-])c1)C4=O)C3=O (stereo not drawn) [Compound 8, 3-Nitrophenyl gambogate] | > 80 | 66.4 ± 1.1 | > 80 | > 80 | 17.9 ± 1.38 | 77.5 ± 3.65 |  |  |  | 
CC(C)=CCCC1(C)C=Cc2c(O)c3c(c(CC=C(C)C)c2O1)OC12C(=CC4CC1C(C)(C)OC2(C/C=C(/C)C(=O)n1cccn1)C4=O)C3=O (stereo not drawn) [Compound 33, 1-Gambogyl pyrazole] | 1.3 ± 0.08 | 1.2 ± 0.09 | 4.23 ± 0.39 | 1 ± 0.06 | 0.53 ± 0.05 | 0.57 ± 0.03 | 1.75 ± 0.09 |  |  | 
CC(C)=CCCC1(C)C=Cc2c(O)c3c(c(CC=C(C)C)c2O1)OC12C(=CC4CC1C(C)(C)OC2(C/C=C(/C)C(=O)Oc1cccc(C=O)c1)C4=O)C3=O (stereo not drawn) [Compound 15, 3-Formylphenyl gambogate] | 33 ± 1.5 | 6.8 ± 0.78 | 62.6 ± 3.12 | 10.85 ± 0.06 | 6.11 ± 0.39 | 13.6 ± 1.16 | 14.8 ± 1.19 |  |  | 
CC(C)=CCCC1(C)C=Cc2c(O)c3c(c(CC=C(C)C)c2O1)OC12C(=CC4CC1C(C)(C)OC2(C/C=C(/C)C(=O)Oc1ccc(Br)c(F)c1F)C4=O)C3=O (stereo not drawn) [Compound 24, 4-Bromo-2,3-difluorophenyl gambogate] | > 80 | > 80 | > 80 | > 80 | > 80 | > 80 | > 80 |  |  | 
CC(C)=CCC/C(C)=C/COC(=O)/C(C)=C\CC12OC(C)(C)C3CC(C=C4C(=O)c5c(O)c6c(c(CC=C(C)C)c5OC431)OC(C)(CCC=C(C)C)C=C6)C2=O (stereo not drawn) [Compound 10, Geraniol gambogate] | > 80 | > 80 | > 80 | > 80 | > 80 | > 80 |  |  |  | 
CC(C)=CCCC1(C)C=Cc2c(O)c3c(c(CC=C(C)C)c2O1)OC12C(=CC4CC1C(C)(C)OC2(C/C=C(/C)C(=O)Oc1ccc(C)c([N+](=O)[O-])c1)C4=O)C3=O (stereo not drawn) [Compound 1, 4-Methyl-3-nitrophenyl gambogate] | 43.5 ± 3.92 | 25.5 ± 1.79 | 32.9 ± 1.69 | 30.8 ± 2.76 | 10.2 ± 0.48 | 45.2 ± 2.64 |  |  |  | 
C=CCc1ccc(OC(=O)/C(C)=C\CC23OC(C)(C)C4CC(C=C5C(=O)c6c(O)c7c(c(CC=C(C)C)c6OC542)OC(C)(CCC=C(C)C)C=C7)C3=O)c(OC)c1 (stereo not drawn) [Compound 3, 4-Allyl-2-methoxyphenyl gambogate] | 38 ± 3.1 | 18.7 ± 0.97 | 13.1 ± 0.77 | 28.8 ± 2.84 | 8.18 ± 1.22 | 52.7 ± 1.15 |  |  |  | 
CC(C)=CCCC1(C)C=Cc2c(O)c3c(c(CC=C(C)C)c2O1)OC12C(=CC4CC1C(C)(C)OC2(C/C=C(/C)C(=O)Oc1c(Br)ccc(F)c1F)C4=O)C3=O (stereo not drawn) [Compound 2, 6-Bromo-2,3-difluorophenyl gambogate] | 49.1 ± 5.16 | 45.3 ± 4.2 | 57 ± 0.62 | 41.4 ± 3.52 | 16.1 ± 1.74 | 31.9 ± 1.27 |  |  |  | 
COc1ccc(-c2csc(NC(=O)/C(C)=C\CC34OC(C)(C)C5CC(C=C6C(=O)c7c(O)c8c(c(CC=C(C)C)c7OC653)OC(C)(CCC=C(C)C)C=C8)C4=O)n2)cc1 (stereo not drawn) [Compound 31, 4-(4-Methoxyphenyl)thiazol-2-gambogamide] | 61.6 ± 1.73 | 18.9 ± 1.34 | 57.9 ± 2.6 | 49.2 ± 4.31 | 13.7 ± 0.56 | 30.2 ± 2.04 |  | inactive | < 25 | 25 to 50
COc1ccc(OC(=O)/C(C)=C\CC23OC(C)(C)C4CC(C=C5C(=O)c6c(O)c7c(c(CC=C(C)C)c6OC542)OC(C)(CCC=C(C)C)C=C7)C3=O)cc1 (stereo not drawn) [Compound 13, 4-Methoxyphenyl gambogate] | 66.8 ± 4.59 | 17.5 ± 1.59 | > 80 | 60.5 ± 4.24 | 8.05 ± 0.28 | 27.7 ± 2.77 |  |  |  | 

Source: article PMC6268492, “Synthesis and Antiangiogenic Activity of Novel Gambogic Acid Derivatives” (Molecules, 2012)
